Results as given in US10723702B2, “Photocrosslinking reagents and methods of use thereof” (Northwestern University, priority 2015, dated 2020).
“Also recorded” adds a separate entry of the source.

Legend:
UbcH7 [1] = experiment: UbcH7 C86S-Ub oxyester formation by crosslinker-alkylated UbcH7; format: biochemical, human; settings: oxyester formation and ubiquitin transfer retained
Method: (§1) FIGS. 5A-C. Crosslinker-modified UbcH7 charged with ubiquitin. UbcH7 C86S-Ub oxyester interacts with E6AP to transfer ubiquitin. (A.) Each alkylated mutant is competent to form an UbcH7 C86S-Ub oxyester except when the catalytic cysteine C86 is alkylated with crosslinker (lane 9). UbcH7 mutants alkylated by crosslinker 1 at the indicated residue (5 μM) were incubated with Ube1 (200 nM), ubiquitin (10 μM) in the dark at 37° C. for 15 hours in 25 mM HEPES pH 7.5, 50 mM NaCl, 10 mM MgCl2, 1 mM DTT with or without ATP (185 μM). Reactions were quenched with 6× Laemmli buffer with β-ME and incubated at room temperature for 5 minutes without boiling. The “*” marks a faint GST impurity. […] (C.) UbcH7 CΔS-Ub oxyester alkylated with crosslinker transfers ubiquitin to E6AP HECT (compare to FIG. 2B where E6AP HECT is a single band). […] UbcH7-Ub oxyester (5 μM) was incubated with or without E6AP-HECT (5 μM) in PBS(B) for 20 hours at room temperature. Reactions were quenched with 6× Laemmli buffer with β-ME and incubated at room temperature for 5 minutes without boiling.

[2] = tested on: UbcH7 mutants with a single cysteine available; experiment: Alkylation conversion of UbcH7 mono-cysteine mutants by crosslinker, estimated by LCMS; format: biochemical, human; settings: all mono-cysteine UbcH7 mutants; intact protein mass spectrometry
Method: Crosslinker in DMF (500 mM, 5 mM final concentration) was added to a UbcH7 cysteine mutant (100-200 μM in UbcH7 storage buffer; 1% DMF v/v final concentration). The resulting reaction mixture was mixed by pipetting, covered with aluminum foil, and rocked at room temperature (crosslinkers 1), or 4° C. (crosslinker 2 and 3) for 90 minutes. Immediately following, the solution was desalted/exchanged into PBS(B) with a Zeba Spin Desalting Column (7 kDa MWCO Pierce), frozen in N2(l), and stored at −80° C. The extent of alklylation was analyzed by LC-MS.
(§2) Alkylation of UbcH7 cysteine mutants occurred readily by incubating 50-300 μM UbcH7 with 5 mM crosslinker 1 at room temperature for 90 minutes before removing free crosslinker with a desalting column. […] The UbcH7 CΔS-1 mutants (10 μM) were then mixed with the E6AP catalytic HECT domain (10 μM) and irradiated at 365 nm for 10 minutes in a 96-well plate. The reaction mixtures were then resolved with reducing SDS-PAGE and analyzed with anti-UbcH7 western blot. Photocrosslinking of UbcH7 to E6AP depends on the presence of both UV irradiation and E6AP (FIG. 6).

E6AP HECT domain [3] = experiment: Photocrosslinking of crosslinker-alkylated UbcH7 to E6AP HECT (365 nm, SDS-PAGE/western blot); format: biochemical; settings: for Crosslinking of E6AP by UbcH7 CΔS F63A mutants or their Ub oxyesters bearing crosslinker: F63A negative control
Method: (§3) FIG. 4. […] UbcH7 CΔS E93C-2 or UbcH7 CΔS E93C-3 (10 μM final concentration) was incubated with E6AP-HECT (10 μM final concentration) in PBS(B) with 6 μM Tween-20 and 1 mM DTT. After keeping samples in the dark or irradiating at 365 nm for 10 minutes, they were quenched with 6× Laemmli buffer and β-mercaptoethanol (β-ME) and then boiled at 95° C. for 5 minutes. Covalently crosslinked protein complexes were resolved by SDS-PAGE and visualized by western blot and coomassie.
(§4) E6AP HECT was exchanged into crosslinker buffer with Zeba Spin Desalting Column and mixed (14 μM final concentration, 480 μg) with Tween-20 (6 μM), DTT (1 mM) in PBS(B) in a 1.5 mL tube. The reaction mixture was then taken to a darkened room where alkylated UbcH7 (14 μM, final concentration, 203 μg) was added (final volume of reaction mixture was 790 μL). The solution was mixed by pipetting and then transferred to four wells of a 96 well plate (Costar #3370). The plate was placed 3 cm below a UV lamp (UVP 3UV-38 3UV Lamp; 8 watt, 115V ˜60 Hz, 0.16 Amps) and irradiated at 365 nm for 10 minutes.
(§5) Following irradiation, the sample was mixed with Laemmli buffer and β-mercaptoethanol (230 mM final concentration) and boiled for five minutes. Crosslinking experiments in main text FIGS. 2, 3, and 4 were performed similarly with 20-50 μL total volume and with the indicated final concentrations of UbcH7 and E6AP.
as §2

UbcH7/E6AP interaction = experiment: Ubiquitin transfer from alkylated UbcH7 CΔS-Ub oxyester to E6AP HECT; format: biochemical; settings: UbcH7-Ub oxyester 5 μM, E6AP-HECT 5 μM, PBS(B), 20 hours, room temperature
Method: as §1

UbcH7 [4] = target: T1, UbcH7 (Homo sapiens, UniProt P68036, C137S/C17S/C86S/E93C); experiment: UbcH7 C86S-Ub oxyester formation by crosslinker-alkylated UbcH7; format: biochemical; settings: crosslinker on UbcH7 CΔS E93C; Ube1, ubiquitin, ATP, 37° C., 15 hours
T1 construct: Underlined residues remain from the GST tag and are not part; GST (N, cleaved yes); made in house; host or cells: E. coli BL21 (UbcH7)
Method: as §1

E6AP HECT domain [5] = target: T2, E6AP HECT domain (Homo sapiens, UniProt Q05086); experiment: Photocrosslinking of crosslinker-alkylated UbcH7 to E6AP HECT (365 nm, SDS-PAGE/western blot); format: biochemical; settings: crosslinker on UbcH7 CΔS E93C 10 μM, E6AP-HECT 10 μM, 365 nm 10 minutes
T2 construct: Underlined residues remain from the GST tag and are not part; GST (N, cleaved yes); made in house; host or cells: E. coli Rosetta (DE3) pLysS (E6AP HECT); E. coli BL21 (UbcH7)
T2 sequence (Q05086 with tags, fused parts or gaps): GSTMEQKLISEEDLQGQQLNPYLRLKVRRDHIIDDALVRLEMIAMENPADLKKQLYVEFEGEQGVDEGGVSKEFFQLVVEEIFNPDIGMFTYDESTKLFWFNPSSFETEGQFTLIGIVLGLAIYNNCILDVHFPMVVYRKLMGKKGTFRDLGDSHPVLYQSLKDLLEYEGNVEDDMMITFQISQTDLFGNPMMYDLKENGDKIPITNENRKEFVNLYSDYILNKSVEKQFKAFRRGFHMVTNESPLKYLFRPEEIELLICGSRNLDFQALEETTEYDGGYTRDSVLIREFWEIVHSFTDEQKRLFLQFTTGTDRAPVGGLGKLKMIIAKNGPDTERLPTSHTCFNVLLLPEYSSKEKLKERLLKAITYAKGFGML
Method: as §3, §4, §5, §2

[6] = Acid cleavage of crosslinker in photocrosslinked UbcH7-E6AP complex; format: physicochemical; settings: pH 1, 55° C.
Method: FIGS. 12A-E. Mass spectrometry protocol to identify crosslinker modifications on E6AP. A. The band corresponding to the crosslinked UbcH7-E6AP complex was excised and loaded to the denaturing electroelution device. After eluting complexes from the gels, photocrosslinked protein complexes were cleaved under acidic conditions, trypsinized, and then analyzed. B. Crosslinker 2 is cleavable at pH 1, 55° C. I. UbcH7-E6AP crosslink. II. E6AP-HECT. C. By conducting the acidic cleavage of photocrosslinked proteins in Tris-Glycine-SDS buffer, we avoided hydrolysis of the peptide backbone. I. UbcH7-E6AP crosslink. II. E6AP-HECT. III. UbcH7. D. MS^2 identification of E6AP Lys^847 modified by crosslinker 2. y-ions are highlighted. The full spectrum and b-ion identification can be found in Spectral Appendix I. E. Residue map of the E6AP C-terminus indicating sites of crosslinker modification by UbcH7 CΔS E93C-2/3 or UbcH7 CΔS E93C Ub-2/3.
Electroelution fractions in Tris-Glycine-SDS buffer were treated with 1 M aqueous HCl (protein sample/1 M HCl 4:1 v/v) to obtain pH 1 in a 1.5 microcentrifuge tube (one gel's worth of elution per tube). […]
To identify the photocrosslinked sites of E6AP, a mass spectrometry protocol was developed. […] Finally, protein was precipitated with acetone, digested with trypsin, and then analyzed the peptides with an Orbitrap Velos.

E6AP-HECT = target: T3, E6AP-HECT (Homo sapiens, UniProt Q05086); settings: read-out: Binding affinity Kd for E6AP-HECT; cited from earlier work
T3 sequence (Q05086 495-852 isoform Q05086-2 limits assumed): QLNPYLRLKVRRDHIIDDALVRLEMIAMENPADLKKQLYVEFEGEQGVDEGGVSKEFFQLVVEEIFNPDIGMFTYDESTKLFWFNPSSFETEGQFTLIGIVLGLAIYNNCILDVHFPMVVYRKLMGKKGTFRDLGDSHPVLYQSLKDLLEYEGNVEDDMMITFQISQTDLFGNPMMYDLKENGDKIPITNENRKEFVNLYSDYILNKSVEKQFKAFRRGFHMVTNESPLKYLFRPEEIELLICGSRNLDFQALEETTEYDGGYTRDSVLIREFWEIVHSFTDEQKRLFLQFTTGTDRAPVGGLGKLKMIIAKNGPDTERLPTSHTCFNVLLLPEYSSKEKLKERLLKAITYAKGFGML

T1 sequence (P68036 with tags, fused parts or gaps C17S/C86S/E93C/C137S): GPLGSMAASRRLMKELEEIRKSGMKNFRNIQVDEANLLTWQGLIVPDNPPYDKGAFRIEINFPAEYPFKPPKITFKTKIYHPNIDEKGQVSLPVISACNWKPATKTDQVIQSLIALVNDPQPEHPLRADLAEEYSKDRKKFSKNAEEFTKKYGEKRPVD

Row | Photocrosslinking efficiency (E6AP HECT domain [5]) | Cleavage of crosslinker under acidic conditions [6] | Compound | Effect of mutagenesis and alkylation with crosslinker on E2 enzyme structure (UbcH7 [1]) | Labeling (mono-alkylation) of UbcH7 cysteine mutants, in words [2] | Crosslinking of E6AP by UbcH7 CΔS F63A mutants or their Ub oxyesters bearing crosslinker (E6AP HECT domain [3]) | Crosslinking efficiency by crosslinker position on UbcH7 (E6AP HECT domain [3]; crosslinker placed at UbcH7 CΔS E93C or catalytic cysteine Cys86, 10 μM each, 365 nm 10 minutes) | Interference of crosslinker with UbcH7/E6AP interaction (ubiquitin transfer to E6AP HECT) (UbcH7/E6AP interaction) | Effect of crosslinker on efficiency of UbcH7-Ub oxyester formation (UbcH7 [4]) | Kd (E6AP-HECT) [µM]
1 |  |  | CC1(CCNC(=O)CI)N=N1 [Crosslinker 1] | did not compromise the E2 enzyme structure | quantitatively labeled every UbcH7 cysteine mutant; also recorded: near quantitative mono-alkylation | did not crosslink E6AP | most efficient crosslinking | does not interfere with the UbcH7/E6AP interaction |  | 
2 | equal photocrosslinking efficiency | cleavable | CC1(CCOS(=O)(=O)NC(=O)CI)N=N1 [Crosslinker 2] | did not compromise the E2 enzyme structure | not as reactive with some of the mutants | did not crosslink E6AP |  |  | does not affect the efficiency of UbcH7-Ub oxyester formation | 
3 | equal photocrosslinking efficiency |  | [2H]C([2H])([2H])C1(C([2H])([2H])COS(=O)(=O)NC(=O)CI)N=N1 [Crosslinker 3] | did not compromise the E2 enzyme structure | not as reactive with some of the mutants |  |  |  |  | 
4 |  |  | UbcH7: E2 enzyme upstream of E6AP (SEQ ID NO: 2) |  |  |  |  |  |  | 5
